In one assay the test system is CEM cells. Description: MTS cell proliferation assay. In kind it is cell-based, human. How it is done: Suspension cells (CEM) were seeded into 96-well plates at a density of 5×10^3 cells per well and were treated with increasing concentrations of all halogenated analogs for 72 hours. Measurement of cell proliferation was performed colorimetrically by 3-(4,5-dimethylthiazol-2-yl)-5-(3-carboxymethoxyphenyl)-2-(4-sulphophenyl)-2H-tetrazolium, inner salt (MTS) assay, using the CellTiter96 AQueous One Solution Reagent (Promega, Madison, Wis.). Cells were exposed to MTS for 3 hours and absorbance was measured using a microplate reader (Molecular Devices, Sunnyvale, Calif.) at an optical density (OD) of 490 nm. The percentage of cell survival as a function of drug concentration for both the assays was then plotted to determine the IC50 value, which stands for the drug concentration needed to prevent cell proliferation by 50%.
Having identified tubulin as the target molecule, the pharmacological study was extended at the cellular level to determine if all the halogenated analogs affected cancer cell proliferation. As a preliminary screen, 9-chloro-nos and noscapine were evaluated for their antiproliferative activity in three human cancer cell lines; human breast adenocarcinoma cells (estrogen- and progesterone-receptor positive, MCF-7 and estrogen- and progesterone-receptor negative, MDA-MB-231) and human lymphoblastoid cells CEM. […]

The test system of assay [1] is MCF-7 cells. In words: Cell cycle analysis by flow cytometry (propidium iodide). In kind it is cell-based, human. Conditions: for G0/G1 % / G2/M % / S % / Sub-G1 %: mean ± S.E.M. On the procedure:
The flow cytometric evaluation of the cell cycle status was performed as described previously. Briefly, 2×10^6 cells were centrifuged, washed twice with ice-cold PBS, and fixed in 70% ethanol. Tubes containing the cell pellets were stored at 4° C. for at least 24 hours. Cells were then centrifuged at 1000×g for 10 min and the supernatant was discarded. The pellets were washed twice with 5 ml of PBS and then stained with 0.5 ml of propidium iodide (0.1% in 0.6% Triton-X in PBS) and 0.5 ml of RNase A (2 mg/ml) for 45 minutes in dark. Samples were then analyzed on a FACSCalibur flow cytometer (Beckman Coulter Inc., Fullerton, Calif.).
To investigate the precise mechanisms of cell death, the effect of 9-cloro-noscapine and other halogenated noscapine analogs on percent G2/M cells (mitotic index) and percent sub-G1 cells (apoptotic index) was examined as a function of dose and time in MCF-7 cells using fluorescence activated cell sorting (FACS) analysis. The effect of all compounds including noscapine was evaluated at three doses-5 μM, 10 μM and 25 μM for 0, 24, 48 and 72 hours of drug treatment. […] Fluorescently labeled DNA is a good indicator of cell cycle progression and cell death. An unreplicated complement of diploid (2N) DNA cells represents the G1 phase while duplicated tetraploid (4N) DNA cells represent G2 and M phases. Cells in the process of DNA duplication between diploid and tetraploid peaks represent S phase when DNA is being synthesized. Less than diploid DNA appears in populations of dying cells that degrade their DNA to different extents. Treatment of MCF-7 cells with these compounds for 0, 24, 48 and 72 hours led to profound perturbations of the cell cycle profile at 25 μM (FIGS. 3 A-D). […] The distribution of cell population over G0/G1, S, G2/M and sub-G1 phases of the cell cycle for 25 μM concentration is shown in Table 1.

The test system of assay [2] is 1A9/PTX22 (paclitaxel-resistant variant). Description: Inhibition of cell proliferation. In kind it is cell-based.
Assay [3] deals with CEM/VLB100 (vinblastine-resistant variant). Description: Inhibition of cell proliferation. The assay is classed as cell-based, human.
The subject of assay [4] is MCF-7 cells. In words: Immunofluorescence confocal microscopy of spindle architecture and nuclear morphology. Conditions: 25 μM, 0, 12, 24, 48 and 72 hours. The assay is classed as cell-based, human. How it is done: Cells adhered to poly-L-lysine coated coverslips were treated with noscapine, 9-chloro-noscapine, and other halogenated analogs (9-F-nos, 9-Br-nos, and 9-I-nos) for 0, 12, 24, 48 and 72 hours. After treatment, cells were fixed with cold (−20° C.) methanol for 5 min and then washed with phosphate-buffered saline (PBS) for 5 min. Non-specific sites were blocked by incubating with 100 μl of 2% BSA in PBS at 37° C. for 15 min. A mouse monoclonal antibody against α-tubulin (DM1A, Sigma) was diluted 1:500 in 2% BSA/PBS (100 μl) and incubated with the coverslips for 2 hours at 37° C. Cells were then washed with 2% BSA/PBS for 10 min at room temperature before incubating with a 1:200 dilution of a fluorescein-isothiocyanate (FITC)-labeled goat anti-mouse IgG antibody (Jackson ImmunoResearch, Inc., West Grove, Pa.) at 37° C. for 1 hour. Coverslips were then rinsed with 2% BSA/PBS for 10 min and incubated with propidium iodide (0.5 μg/ml) for 15 min at room temperature before they were mounted with Aquamount (Lerner Laboratories, Pittsburgh, Pa.) containing 0.01% 1,4-diazobicyclo(2,2,2)octane (DABCO, Sigma). […]
To test whether 9-chloro-noscapine induces spindle abnormalities prior to apoptotic cell death indicated by nuclear fragmentation of dying cells, the spindle architecture and nuclear morphology of MCF-7 cells treated with 9-chloronoscapine was evaluated using confocal microscopy (FIG. 4). […]

With `COc1ccc2c(c1OC)C(=O)O[C@@H]2[C@H]1c2c(c(Cl)c3c(c2OC)OCO3)CCN1C` [9-Cl-nos, (S)-3-((R)-9-chloro-4-methoxy-6-methyl-5,6,7,8-tetrahydro-[1,3]dioxolo[4,5-g]isoquinolin-5-yl)-6,7-dimethoxyisobenzofuran-1(3H)-one], the “inhibition of cell proliferation (in words)” value (in the assay with CEM cells; in assay [2]; in assay [3]) was “effectively inhibits cell proliferation” in each case. The compound also gave an IC50 in the assay with CEM cells (Homo sapiens, CCRF-CEM, 72 hours) of 1200 ± 300 nM. Also, the G0/G1 % in the assay on MCF-7 cells [1] (25 μM, 0 h) came to 69 ± 5.6%; in the assay on MCF-7 cells [1] (25 μM, 24 h), 11.5 ± 2.7%; with MCF-7 cells [1] (25 μM, 48 h), 8 ± 3.3%; with MCF-7 cells [1] (25 μM, 72 h), 5.9 ± 1.9%. Besides, the G2/M % with MCF-7 cells [1] (25 μM, 0 h) worked out at 20.7 ± 3.4%; in the assay on MCF-7 cells [1] (25 μM, 24 h), 59.7 ± 5.2%; in the assay on MCF-7 cells [1] (25 μM, 48 h), 42.4 ± 3.8%; in the assay with MCF-7 cells [1] (25 μM, 72 h), 35.3 ± 3.9%. The S % was 7.5 ± 1.6% with MCF-7 cells [1] (25 μM, 0 h); 4.3 ± 1.4% in the assay with MCF-7 cells [1] (25 μM, 24 h); 4 ± 1.1% in the assay with MCF-7 cells [1] (25 μM, 48 h); 4.1 ± 1.4% with MCF-7 cells [1] (25 μM, 72 h). Also, the Sub-G1 % with MCF-7 cells [1] (25 μM, 0 h) is 1.4 ± 0.5%; in the assay on MCF-7 cells [1] (25 μM, 24 h), 15.3 ± 2.5%; in the assay on MCF-7 cells [1] (25 μM, 48 h), 37.8 ± 3.2%; in the assay on MCF-7 cells [1] (25 μM, 72 h), 50.2 ± 2.5%. In the assay on MCF-7 cells [1] (25 μM, 24 hours), the “accumulation of cells in the G2/M phase (in words)” value was “massive accumulation of cells in the G2/M phase”. The “percent sub-G1 cells compared with noscapine” value with MCF-7 cells [1] (lower doses (5 μM and 10 μM), 72 hours) was “higher”. In addition, in the assay on MCF-7 cells [4], the “spindle abnormalities / mitotic arrest” value was “mitotic arrest commencing as early as 12 hours, and maximizing at 24 hours”.

(Values after patent US20100249172A1, “9-CHLORO NOSCAPINE AND ITS USE IN TREATING CANCERS, INCLUDING DRUG-RESISTANT CANCERS” (EMORY UNIVERSITY, priority 2007, published 2010).)
